How the values were obtained:
GRK2 [1] = molecular target: T1, GRK2 (Homo sapiens, UniProt P25098); experiment: GRK2 Degradation Assay and Western Blot in PAXF1657 cells; assay type: cell-based; parameters: endogenous in cells; host or cells: PAXF1657; details: for inhibition at 0.3 µM: read-out: % GRK2 degradation at 0.3 uM in PAXF1657 EV (24 hrs); for inhibition at 1 µM: read-out: % GRK2 degradation at 1 uM in PAXF1657 EV (24 hrs); for inhibition at 3 µM: read-out: % GRK2 degradation at 3 uM in PAXF1657 EV (24 hrs)
T1 sequence (P25098 1-689): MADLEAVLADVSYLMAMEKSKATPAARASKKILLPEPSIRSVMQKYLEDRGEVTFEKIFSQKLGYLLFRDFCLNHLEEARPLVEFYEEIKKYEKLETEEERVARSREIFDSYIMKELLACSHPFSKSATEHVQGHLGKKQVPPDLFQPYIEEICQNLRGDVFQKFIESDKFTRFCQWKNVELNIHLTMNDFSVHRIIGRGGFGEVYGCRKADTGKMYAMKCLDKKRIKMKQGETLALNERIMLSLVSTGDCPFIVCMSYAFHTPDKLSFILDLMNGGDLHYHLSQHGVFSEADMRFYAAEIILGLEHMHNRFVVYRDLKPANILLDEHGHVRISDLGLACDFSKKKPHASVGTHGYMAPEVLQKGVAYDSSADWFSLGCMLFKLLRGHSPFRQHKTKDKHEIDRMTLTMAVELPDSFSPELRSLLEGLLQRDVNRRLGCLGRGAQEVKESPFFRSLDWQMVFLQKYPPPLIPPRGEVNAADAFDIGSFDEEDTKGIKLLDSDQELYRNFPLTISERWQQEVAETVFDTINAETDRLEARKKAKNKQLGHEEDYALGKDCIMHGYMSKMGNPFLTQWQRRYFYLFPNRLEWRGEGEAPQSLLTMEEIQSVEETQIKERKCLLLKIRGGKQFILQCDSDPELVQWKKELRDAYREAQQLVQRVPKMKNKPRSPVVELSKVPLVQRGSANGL
In short: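 PAXF1657 cells grown to 70% confluency, then treated with compounds at 0–10 μM for 6 to 24 h at 37 °C. Lysates in PBS with 1% NP40 run on SDS-PAGE. GRK2 protein detected by western blot with β-actin as loading reference, using ECL chemiluminescence.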

GRK2 [2] = molecular target: T1, GRK2; experiment: Second ADPGlo GRK2 Inhibition Assay (Example 3); assay type: biochemical; details: ADP-Glo, 20 μM ATP; read-out: Second ADPGlo Enzymatic GRK2 Assay: IC50 (nM) (Example 3)
Method: Assay: GRK2 (2 nM) was incubated with ATP (20 μM) and GRKtide (1.2 mg/mL) in 11 μL of assay buffer (see above) for 180 min at room temperature. Compounds were dissolved in 100% DMSO, serially diluted 3.16-fold from 100 μM with 10 concentration points and transferred as 100× into assay plate (final compounds concentration in the reaction plate from 1 μM).
Materials: GRK2 was purchased from SignalChem (Cat #A14-10G, Lot #X645-3). Substrate GRKtide was from SignalChem (Cat #G46-58, Lot #R339-6). ADP-Glo Kinase Assay from Promega (Cat #V9102). Assay buffer consisted of 20 mM HEPES (pH7.5), 20 mM MgCl2, 0.01% Tween-20, 0.05 mM DDT. 384-well white plates were from Corning (Cat #4513).
HTS protocol: Add 5.5 μL of 2× substrate-enzyme mix into all columns except of 1-2 and 24 of reaction plate. Spin 15 seconds at 200 g. Transfer 1 ul of compounds from the plate with serial dilutions (384 well plate with 22 uL of compound in columns 3-22/DMSO solution 1-2,23-24) to Dilution plate (384 well plate with 49 uL of buffer with 2×40 μM ATP). After mixing transfer 5.5 ul from Dilution plate to Reaction plate (to 5.5 μL of 2× substrate-enzyme mix). Spin 15 seconds at 200 g and incubate for 180 min at room temperature with sealing. Add 3 μL ADP-Glo reagent to all the wells. Spin 15 seconds at 200 g and incubate for 40 min at room temperature. Add 6 μL Detection solution to all the wells. Incubate for 30 min at room temperature. Read plate using ClarioStar Plus (BMG).
Data Analysis: Data were analyzed in GraphPad Prism 5.0.2. Each HTS plate contains compounds in columns 3-22, controls (enzyme, no compound) in column 23, and blanks (no enzyme) in columns 2. HTS percent inhibition was calculated for each compound from the signal in luminescence units and the mean of the plate controls and the mean of the plate blanks using the following equation: % Inhibition=100*(1-(signal-blank mean)/(control mean-blank mean)).

PAXF1657 KO Clone #4 = experiment: 7-day cellular proliferation assay (CellTiter-Glo), PAXF1657 KO Clone #4; assay type: cell-based; details: 168 h, 7-day, read-out: 7-day proliferation assay: IC50 GeoMean (uM) [Cell Line: PAXF1657 KO Clone #4]
In short: (§1)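 Read-out is CellTiter-Glo luminescence after 7 days of continuous exposure, with compound re-dosed in fresh medium at day 3. Cells were seeded at 500/well and treated across 30 μM-0.0002 μM (10 points, 0.3% DMSO); baseline viability plates were read at compound addition.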

PAXF1657 EV = experiment: 7-day cellular proliferation assay (CellTiter-Glo), PAXF1657 EV; assay type: cell-based; details: 168 h, 7-day, read-out: 7-day proliferation assay: IC50 GeoMean (uM) [Cell Line: PAXF1657 EV]
In short: as §1

Compound | inhibition at 0.3 µM (GRK2 [1]; PAXF1657 EV, 24 hrs) | inhibition at 1 µM (GRK2 [1]; PAXF1657 EV, 24 hrs) | inhibition at 3 µM (GRK2 [1]; PAXF1657 EV, 24 hrs) | IC50 (GRK2 [2]) | IC50 (PAXF1657 KO Clone #4) | IC50 (PAXF1657 EV) | % GRK2 degradation at 0.03 uM in PAXF1657 EV (24 hrs) (GRK2 [1]; 0.03 uM, PAXF1657 EV, 24 hrs) | % GRK2 degradation at 0.1 uM in PAXF1657 EV (24 hrs) (GRK2 [1]; 0.1 uM, PAXF1657 EV, 24 hrs) | % GRK2 degradation at 10 uM in PAXF1657 EV (24 hrs) (GRK2 [1]; 10 uM, PAXF1657 EV, 24 hrs) | GRK2 degradation, dose dependence (FIGS. 1A-1D) (GRK2 [1]; 24-hour treatment in PAXF1657 cells)
Cc1ncsc1-c1ccc(CNC(=O)[C@@H]2C[C@@H](O)CN2C(=O)[C@@H](NC(=O)CCCOCCOCCOCCCCCCOc2cccc(CNC(=O)c3cccc(NCc4nnc(-c5ccncn5)n4C)c3)c2)C(C)(C)C)cc1 [Compound D77] | -4% | -1% | -7% | < 100 nM | > 10 µM | < 1 µM |  |  |  | 
Cc1ncsc1-c1ccc(CNC(=O)[C@@H]2C[C@@H](O)CN2C(=O)[C@@H](NC(=O)COCCCOCCCCCOc2cccc(CNC(=O)c3cccc(NCc4nnc(-c5ccncn5)n4C)c3)c2)C(C)(C)C)cc1 [Compound D85, (2S,4R)-1-((S)-3,3-dimethyl-2-(2-(3-((5-(3-((3-(((4-methyl-5-(pyrimidin-4-yl)-4H-1,2,4-triazol-3-yl)methyl)amino)benzamido)methyl)phenoxy)pentyl)oxy)propoxy)acetamido)butanoyl)-4-hydroxy-N-(4-(4-methylthiazol-5-yl)benzyl)pyrrolidine-2-carboxamide] | 17% | 34% | 30% | < 100 nM | > 10 µM | 1 to 10 µM |  |  |  | 
Cn1c(CNc2cccc(C(=O)NCc3cccc(OCCCC(=O)Nc4cccc5c4CN(C4CCC(=O)NC4=O)C5=O)c3)c2)nnc1-c1ccncn1 (stereo not shown) [Compound D70] |  |  |  | < 100 nM |  |  |  |  |  | 
Cc1ncsc1-c1ccc(CNC(=O)[C@@H]2C[C@@H](O)CN2C(=O)[C@@H](NC(=O)CCCCCOCCOCCOCCCCCCOc2cccc(CNC(=O)c3cccc(NCc4nnc(-c5ccncn5)n4C)c3)c2)C(C)(C)C)cc1 [Compound D99] |  | 44% | 13% | < 100 nM | 1 to 10 µM | < 1 µM |  |  |  | 
COc1cc(OCC(=O)NCCOCCOCC(=O)N[C@H](C(=O)N2C[C@H](O)C[C@H]2C(=O)NCc2ccc(-c3scnc3C)cc2)C(C)(C)C)ccc1CNC(=O)c1cccc(NCc2nnc(-c3ccncn3)n2C)c1 [Compound D95] |  |  |  | < 100 nM |  |  |  |  |  | 
COc1cc(OCCNC(=O)CCCCCC(=O)N[C@H](C(=O)C2C[C@H](O)C[C@H]2C(=O)NCc2ccc(-c3scnc3C)cc2)C(C)(C)C)ccc1CNC(=O)c1cccc(NCc2nnc(-c3ccncn3)n2C)c1 (stereo partly shown) [Compound D93] |  |  |  | < 100 nM |  |  |  |  |  | 
Cc1ncsc1-c1ccc(CNC(=O)[C@@H]2C[C@@H](O)CN2C(=O)[C@@H](NC(=O)CCCc2cn(CCCCCCCOc3cccc(CNC(=O)c4cccc(NCc5nnc(-c6ccncn6)n5C)c4)c3)nn2)C(C)(C)C)cc1 [Compound D83] | 2% | 25% | 39% | < 100 nM | > 10 µM | 1 to 10 µM |  |  |  | 
Cc1ncsc1-c1ccc(CNC(=O)[C@@H]2C[C@@H](O)CN2C(=O)[C@@H](NC(=O)CCCOc2cccc(CNC(=O)c3cccc(NCc4nnc(-c5ccncn5)n4C)c3)c2)C(C)(C)C)cc1 [Compound D97] |  | 11% |  | < 100 nM | 1 to 10 µM | > 10 µM |  |  |  | 
Cc1ncsc1-c1ccc(CNC(=O)[C@@H]2C[C@@H](O)CN2C(=O)[C@@H](NC(=O)CCCCc2cn(CCCCCCCOc3cccc(CNC(=O)c4cccc(NCc5nnc(-c6ccncn6)n5C)c4)c3)nn2)C(C)(C)C)cc1 [Compound D82] | -1% | 28% | 57% | < 100 nM | > 10 µM | < 1 µM |  |  |  | 
Cn1c(CNc2cccc(C(=O)NCc3cccc(OCCCCCCOCCOCCOCCCC(=O)Nc4cccc5c4CN(C4CCC(=O)NC4=O)C5=O)c3)c2)nnc1-c1ccncn1 (stereo not shown) [Compound D56] | 25% | 52% | 64% | < 100 nM | > 10 µM | 1 to 10 µM |  |  |  | 
Cc1ncsc1-c1ccc(CNC(=O)[C@@H]2C[C@@H](O)CN2C(=O)[C@@H](NC(=O)CCCCCOCCCCCOCCCCCCOc2cccc(CNC(=O)c3cccc(NCc4nnc(-c5ccncn5)n4C)c3)c2)C(C)(C)C)cc1 [Compound D98] |  |  |  | < 100 nM |  |  |  |  |  | 
Cn1c(CNc2cccc(C(=O)NCc3cccc(OCCCCCCn4cc(CCCCC(=O)Nc5cccc6c5CN(C5CCC(=O)NC5=O)C6=O)nn4)c3)c2)nnc1-c1ccncn1 (stereo not shown) [Compound D62] | 35% | 56% | 75% | < 100 nM | > 10 µM | > 10 µM |  |  |  | 
Cn1c(CNc2cccc(C(=O)NCc3cccc(OCCCCCCCn4cc(CCCCC(=O)Nc5cccc6c5CN(C5CCC(=O)NC5=O)C6=O)nn4)c3)c2)nnc1-c1ccncn1 (stereo not shown) [Compound D60] | -3% | 13% | 69% | < 100 nM | > 10 µM | > 10 µM |  |  |  | 
COc1cc(OCCNC(=O)CCOCCOCCOCCNC(=O)Nc2cccc3c2CN(C2CCC(=O)NC2=O)C3=O)ccc1CNC(=O)c1cccc(NCc2nnc(-c3ccncn3)n2C)c1 (stereo not shown) [Compound D68] |  |  |  | > 1000 nM |  |  |  |  |  | 
Cn1c(CNc2cccc(C(=O)NCc3cccc(OCCCCCCOCCOCCOCCCCCC(=O)Nc4cccc5c4CN(C4CCC(=O)NC4=O)C5)c3)c2)nnc1-c1ccncn1 (stereo not shown) [Compound D73] | 48% | 67% | 76% | < 100 nM | > 10 µM | 1 to 10 µM | 15% | 28% | 76% | Dose dependent
Cn1c(CNc2cccc(C(=O)NCc3cccc(OCCCCCCC(=O)Nc4cccc5c4CN(C4CCC(=O)NC4=O)C5=O)c3)c2)nnc1-c1ccncn1 (stereo not shown) [Compound D69] |  |  |  | < 100 nM |  |  |  |  |  | 
COc1cc(OCC(=O)NCCOCCOCCNC(=O)COCC(=O)N[C@H](C(=O)N2C[C@H](O)C[C@H]2C(=O)NCc2ccc(-c3scnc3C)cc2)C(C)(C)C)ccc1CNC(=O)c1cccc(NCc2nnc(-c3ccncn3)n2C)c1 [Compound D94] |  |  |  | 100 to 1000 nM |  |  |  |  |  | 
Cn1c(CNc2cccc(C(=O)NCc3cccc(OCCCCCCOCCOCCCCCC(=O)Nc4cccc5c4CN(C4CCC(=O)NC4=O)C5=O)c3)c2)nnc1-c1ccncn1 (stereo not shown) [Compound D52] |  |  |  | < 100 nM |  |  |  |  |  | 
Cc1ncsc1-c1ccc(CNC(=O)[C@@H]2C[C@@H](O)CN2C(=O)[C@@H](NC(=O)CCCCCOCCOCCCCCCOc2cccc(CNC(=O)c3cccc(NCc4nnc(-c5ccncn5)n4C)c3)c2)C(C)(C)C)cc1 [Compound D76] |  |  |  | < 100 nM |  |  |  |  |  | 

— patent US20240174637A1, “DEGRADERS OF GRK2 AND USES THEREOF” (Sonata Therapeutics, Inc., priority 2021, published 2024)
